# Laboratory results taken from ChEMBL document CHEMBL4028808, “Design and synthesis of selective CDK8/19 dual inhibitors: Discovery of 4,5-dihydrothieno[3',4':3,4]benzo[1,2-d]isothiazole derivatives” (Bioorg Med Chem, 2017).
# Active and inactive are the calls of the source. The rule behind the calls is not given here.
# Legend:
# [1] = target: RAC-alpha serine/threonine-protein kinase (Homo sapiens) (UniProt P31749); assay: Inhibition of Akt1 (unknown origin) at <1 uM using AKT1 substrate pretreated for 5 mins followed by substrate addition after 20 mins in presence of [gamma33P]ATP by scintillation counter method
# [2] = target: CDC7/DBF4 (Cell division cycle 7-related protein kinase/Activator of S phase kinase) (Homo sapiens) (UniProt Q9UBU7+O00311); assay: Inhibition of CDC7/Dbf4 (unknown origin) at 1 uM using His-tagged MCM2 as substrate preincubated for 5 mins followed by substrate addition measured after 60 mins in presence of [gamma33P]ATP by scintillation counter method relative to control; format: protein-complex assay
# Sequence of CDC7/DBF4 (Cell division cycle 7-related protein kinase/Activator of S phase kinase) (Homo sapiens) (O00311 whole entry, looked up): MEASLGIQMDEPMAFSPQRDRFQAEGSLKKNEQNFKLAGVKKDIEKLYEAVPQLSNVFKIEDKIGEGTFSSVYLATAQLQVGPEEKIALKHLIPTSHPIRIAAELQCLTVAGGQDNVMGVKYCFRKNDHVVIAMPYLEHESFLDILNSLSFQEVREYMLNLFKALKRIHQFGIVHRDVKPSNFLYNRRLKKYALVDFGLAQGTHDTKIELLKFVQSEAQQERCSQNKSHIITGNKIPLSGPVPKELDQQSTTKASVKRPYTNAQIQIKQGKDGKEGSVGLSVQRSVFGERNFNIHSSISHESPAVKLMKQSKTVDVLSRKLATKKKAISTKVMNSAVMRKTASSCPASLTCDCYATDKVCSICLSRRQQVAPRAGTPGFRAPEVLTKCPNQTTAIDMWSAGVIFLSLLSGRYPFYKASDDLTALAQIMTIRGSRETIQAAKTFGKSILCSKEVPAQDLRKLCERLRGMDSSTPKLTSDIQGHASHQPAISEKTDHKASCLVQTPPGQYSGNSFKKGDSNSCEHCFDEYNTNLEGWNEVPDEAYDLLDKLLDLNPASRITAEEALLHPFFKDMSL
# Sequence of CDC7/DBF4 (Cell division cycle 7-related protein kinase/Activator of S phase kinase) (Homo sapiens) (Q9UBU7 whole entry, looked up): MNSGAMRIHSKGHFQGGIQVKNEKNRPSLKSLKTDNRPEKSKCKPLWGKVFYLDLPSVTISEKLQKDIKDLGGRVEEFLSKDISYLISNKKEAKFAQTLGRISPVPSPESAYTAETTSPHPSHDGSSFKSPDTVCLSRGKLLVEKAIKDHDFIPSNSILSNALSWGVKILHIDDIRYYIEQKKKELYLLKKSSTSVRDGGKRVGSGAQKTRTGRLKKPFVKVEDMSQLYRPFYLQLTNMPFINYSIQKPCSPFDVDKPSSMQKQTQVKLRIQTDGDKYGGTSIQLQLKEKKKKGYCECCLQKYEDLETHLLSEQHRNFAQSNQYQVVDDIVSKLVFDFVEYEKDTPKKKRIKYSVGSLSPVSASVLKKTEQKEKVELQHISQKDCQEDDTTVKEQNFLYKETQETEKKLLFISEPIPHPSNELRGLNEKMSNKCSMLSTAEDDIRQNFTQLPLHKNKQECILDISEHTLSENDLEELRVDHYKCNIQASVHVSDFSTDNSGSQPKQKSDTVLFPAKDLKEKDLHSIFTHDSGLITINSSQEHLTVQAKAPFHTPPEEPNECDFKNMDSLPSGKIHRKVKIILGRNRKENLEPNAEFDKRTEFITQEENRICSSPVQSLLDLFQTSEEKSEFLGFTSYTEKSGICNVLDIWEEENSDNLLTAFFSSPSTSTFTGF
# MV4-11 = assay: Growth inhibition of human MV411 cells after 196 hrs by CellTiter-Glo luminescence assay; format: functional; conditions: MV4-11, 196 h
# [3] = target: Cyclin-dependent kinase 8 (Homo sapiens, UniProt P49336); assay: Inhibition of CDK8 in human SW480 cells assessed as decrease in STAT1 phosphorylation at Ser727 after 2 hrs by Western blot method
# RPMI-8226 [4] = assay: Antitumor activity against human RPMI8226 cells xenografted in C.B17/Icr scid/scid Jcl mouse assessed as tumor growth suppression at 2.5 mg/kg, po qd administered for 14 days measured post last dose relative to control; format: functional
# RPMI-8226 [5] = assay: Growth inhibition of human RPMI8226 cells after 196 hrs by CellTiter-Glo luminescence assay; format: functional; conditions: RPMI-8226, 196 h
# [6] = target: Proto-oncogene tyrosine-protein kinase Src (Homo sapiens) (UniProt P12931); assay: Inhibition of SRC (unknown origin) at <1 uM using biotinylated poly[Glu:Tyr] (4:1) as substrate pretreated for 5 mins followed by substrate addition measured after 10 mins by Alphascreen assay
# [7] = target: Rho-associated protein kinase 1 (Homo sapiens) (UniProt Q13464); assay: Inhibition of ROCK1 (unknown origin) at 1 uM using long S6 peptide as substrate pretreated for 5 mins followed by substrate addition measured after 10 mins in presence of [gamma33P]ATP by scintillation counting method relative to control
# Sequence of Rho-associated protein kinase 1 (Homo sapiens) (Q13464 2-1354 limits assumed): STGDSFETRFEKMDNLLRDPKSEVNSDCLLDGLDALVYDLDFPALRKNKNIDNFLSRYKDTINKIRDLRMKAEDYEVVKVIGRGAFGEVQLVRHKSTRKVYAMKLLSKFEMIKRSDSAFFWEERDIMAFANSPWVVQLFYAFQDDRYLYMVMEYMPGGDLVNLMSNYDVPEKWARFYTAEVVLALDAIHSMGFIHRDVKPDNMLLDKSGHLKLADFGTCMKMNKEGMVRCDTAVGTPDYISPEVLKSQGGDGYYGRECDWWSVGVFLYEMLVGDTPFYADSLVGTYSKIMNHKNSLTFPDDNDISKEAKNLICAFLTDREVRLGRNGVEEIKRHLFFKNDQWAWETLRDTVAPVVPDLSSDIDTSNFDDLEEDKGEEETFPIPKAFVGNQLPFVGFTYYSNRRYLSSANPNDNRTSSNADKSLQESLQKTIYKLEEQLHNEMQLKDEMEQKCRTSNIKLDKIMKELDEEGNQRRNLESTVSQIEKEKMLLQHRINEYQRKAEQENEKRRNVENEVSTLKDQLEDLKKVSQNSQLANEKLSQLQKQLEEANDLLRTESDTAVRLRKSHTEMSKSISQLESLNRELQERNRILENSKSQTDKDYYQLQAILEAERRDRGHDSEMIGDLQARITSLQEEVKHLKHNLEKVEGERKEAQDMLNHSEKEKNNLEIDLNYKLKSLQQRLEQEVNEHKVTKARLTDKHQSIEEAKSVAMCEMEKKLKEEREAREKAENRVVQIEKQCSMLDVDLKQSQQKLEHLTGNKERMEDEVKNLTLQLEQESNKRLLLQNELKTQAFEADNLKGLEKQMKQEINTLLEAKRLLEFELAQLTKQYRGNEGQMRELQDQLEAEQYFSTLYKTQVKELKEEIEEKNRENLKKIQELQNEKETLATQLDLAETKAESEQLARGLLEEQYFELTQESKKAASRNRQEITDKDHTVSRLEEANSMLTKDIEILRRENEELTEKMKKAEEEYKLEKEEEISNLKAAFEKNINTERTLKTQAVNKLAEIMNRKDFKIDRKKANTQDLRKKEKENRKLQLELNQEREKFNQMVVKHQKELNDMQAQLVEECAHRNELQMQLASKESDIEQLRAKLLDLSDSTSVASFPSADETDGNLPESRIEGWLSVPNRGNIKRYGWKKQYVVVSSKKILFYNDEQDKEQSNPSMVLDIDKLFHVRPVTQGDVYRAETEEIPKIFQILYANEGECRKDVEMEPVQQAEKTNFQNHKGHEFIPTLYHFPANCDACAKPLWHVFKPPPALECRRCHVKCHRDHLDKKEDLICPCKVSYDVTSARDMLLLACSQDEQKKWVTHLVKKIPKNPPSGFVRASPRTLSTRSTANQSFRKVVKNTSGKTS
# [8] = target: Insulin receptor (Homo sapiens) (UniProt P06213); assay: Inhibition of IRK (unknown origin) at <1 uM using biotinylated poly[Glu:Tyr] (4:1) as substrate pretreated for 5 mins followed by substrate addition measured after 60 mins by Alphascreen assay
# Mus musculus = assay: Toxicity in C.B17/Icr scid/scid Jcl mouse assessed as body weight loss at 1.25 mg/kg, po bid administered for 14 days measured post last dose; format: organism-based; conditions: in vivo, 336 h
# RPMI-8226 [9] = assay: Antitumor activity against human RPMI8226 cells xenografted in C.B17/Icr scid/scid Jcl mouse assessed as tumor growth suppression at 1.25 mg/kg, po bid administered for 14 days measured post last dose relative to control; format: functional
# [10] = target: Dual specificity tyrosine-phosphorylation-regulated kinase 1A (Homo sapiens) (UniProt Q13627); assay: Binding affinity to partial length wild-type human DYRK1A (H129 to S509 residues) expressed in mammalian expression system assessed as unbound drug level at 300 nM by KINOMEscan assay
# [11] = target: Mitogen-activated protein kinase 14 (Homo sapiens) (UniProt Q16539); assay: Inhibition of p38alpha (unknown origin) at <1 uM using MBP as substrate preincubated for 5 mins followed by substrate addition measured after 60 mins in presence of [gamma32P]ATP by scintillation counter method
# Sequence of Mitogen-activated protein kinase 14 (Homo sapiens) (Q16539 whole entry, the tested form may be a part): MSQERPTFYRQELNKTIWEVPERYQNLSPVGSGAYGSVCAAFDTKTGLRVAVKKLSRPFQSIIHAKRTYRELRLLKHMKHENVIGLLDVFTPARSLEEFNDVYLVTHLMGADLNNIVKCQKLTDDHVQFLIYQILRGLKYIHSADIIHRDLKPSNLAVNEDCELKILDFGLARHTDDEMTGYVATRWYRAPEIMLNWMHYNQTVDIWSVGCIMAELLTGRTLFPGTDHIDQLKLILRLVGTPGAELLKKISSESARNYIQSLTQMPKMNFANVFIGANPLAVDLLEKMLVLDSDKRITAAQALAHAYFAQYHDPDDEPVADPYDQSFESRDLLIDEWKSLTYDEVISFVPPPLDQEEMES
# [12] = target: Interleukin-1 receptor-associated kinase 1 (Homo sapiens) (UniProt P51617); assay: Binding affinity to partial length wild-type human […] (R194 to S712 residues) expressed in mammalian expression system assessed as unbound drug level at 300 nM by KINOMEscan assay
# [13] = Mean residence time in ICR mouse plasma at 1 mg/kg, po administered as cassette dose by LC-MS/MS analysis; format: ADME, organism-based
# [14] = target: Serine/threonine-protein kinase Chk1 (Homo sapiens) (UniProt O14757); assay: Inhibition of CHK1 (unknown origin) at <1 uM using CHKtide as substrate preincubated for 5 mins followed by substrate addition measured after 10 mins in presence of [gamma33P]ATP by scintillation counter method
# [15] = target: Phosphatidylinositol 4,5-bisphosphate 3-kinase catalytic subunit alpha isoform (Homo sapiens) (UniProt P42336); assay: Inhibition of PI3Kalpha (unknown origin) at <1 uM
# [16] = target: Cyclin-dependent kinase 19 (Homo sapiens, UniProt Q9BWU1); conditions: 300 nM
# Sequence of Cyclin-dependent kinase 19 (Q9BWU1 whole entry): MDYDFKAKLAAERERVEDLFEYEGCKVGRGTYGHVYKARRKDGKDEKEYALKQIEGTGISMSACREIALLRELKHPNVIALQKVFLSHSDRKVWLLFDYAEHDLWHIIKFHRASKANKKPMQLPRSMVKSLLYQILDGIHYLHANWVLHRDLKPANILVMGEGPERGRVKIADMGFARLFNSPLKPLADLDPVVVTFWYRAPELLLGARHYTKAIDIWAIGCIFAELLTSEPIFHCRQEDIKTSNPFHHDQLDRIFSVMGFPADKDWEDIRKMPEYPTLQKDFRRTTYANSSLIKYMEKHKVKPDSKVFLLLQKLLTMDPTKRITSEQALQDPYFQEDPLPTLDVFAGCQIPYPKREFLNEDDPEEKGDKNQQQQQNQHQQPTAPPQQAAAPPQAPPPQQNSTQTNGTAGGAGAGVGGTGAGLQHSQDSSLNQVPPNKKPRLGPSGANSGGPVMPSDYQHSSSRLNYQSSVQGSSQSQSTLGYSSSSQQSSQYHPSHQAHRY
# [17] = target: MAP kinase-activated protein kinase 2 (Homo sapiens) (UniProt P49137); assay: Inhibition of MAPKAPK2 (unknown origin) at <1 uM using KKLNRTLSVA-NH2 as substrate preincubated for 5 mins followed by substrate addition measured after 10 mins in presence of [gamma33P]ATP by scintillation counter method
# Sequence of MAP kinase-activated protein kinase 2 (Homo sapiens) (P49137 whole entry, looked up, the tested form may be a part): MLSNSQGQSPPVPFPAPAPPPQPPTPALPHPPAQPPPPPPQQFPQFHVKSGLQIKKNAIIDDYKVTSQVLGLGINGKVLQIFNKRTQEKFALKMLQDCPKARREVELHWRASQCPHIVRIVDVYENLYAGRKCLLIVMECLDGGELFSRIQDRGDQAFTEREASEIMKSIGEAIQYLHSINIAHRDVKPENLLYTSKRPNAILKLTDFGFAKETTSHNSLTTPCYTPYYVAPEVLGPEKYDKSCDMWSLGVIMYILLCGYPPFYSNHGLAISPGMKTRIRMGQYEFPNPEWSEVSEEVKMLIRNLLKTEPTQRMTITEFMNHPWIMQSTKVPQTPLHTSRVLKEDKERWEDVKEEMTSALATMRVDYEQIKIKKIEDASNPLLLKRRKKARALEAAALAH
# [18] = target: Homeodomain-interacting protein kinase 1 (Homo sapiens, UniProt Q86Z02); assay: Binding affinity to partial length human HIPK1 (M146 to I555 residues) expressed in mammalian expression system by kinome scan assay
# Sequence of Homeodomain-interacting protein kinase 1 (Q86Z02 whole entry, the tested form may be a part): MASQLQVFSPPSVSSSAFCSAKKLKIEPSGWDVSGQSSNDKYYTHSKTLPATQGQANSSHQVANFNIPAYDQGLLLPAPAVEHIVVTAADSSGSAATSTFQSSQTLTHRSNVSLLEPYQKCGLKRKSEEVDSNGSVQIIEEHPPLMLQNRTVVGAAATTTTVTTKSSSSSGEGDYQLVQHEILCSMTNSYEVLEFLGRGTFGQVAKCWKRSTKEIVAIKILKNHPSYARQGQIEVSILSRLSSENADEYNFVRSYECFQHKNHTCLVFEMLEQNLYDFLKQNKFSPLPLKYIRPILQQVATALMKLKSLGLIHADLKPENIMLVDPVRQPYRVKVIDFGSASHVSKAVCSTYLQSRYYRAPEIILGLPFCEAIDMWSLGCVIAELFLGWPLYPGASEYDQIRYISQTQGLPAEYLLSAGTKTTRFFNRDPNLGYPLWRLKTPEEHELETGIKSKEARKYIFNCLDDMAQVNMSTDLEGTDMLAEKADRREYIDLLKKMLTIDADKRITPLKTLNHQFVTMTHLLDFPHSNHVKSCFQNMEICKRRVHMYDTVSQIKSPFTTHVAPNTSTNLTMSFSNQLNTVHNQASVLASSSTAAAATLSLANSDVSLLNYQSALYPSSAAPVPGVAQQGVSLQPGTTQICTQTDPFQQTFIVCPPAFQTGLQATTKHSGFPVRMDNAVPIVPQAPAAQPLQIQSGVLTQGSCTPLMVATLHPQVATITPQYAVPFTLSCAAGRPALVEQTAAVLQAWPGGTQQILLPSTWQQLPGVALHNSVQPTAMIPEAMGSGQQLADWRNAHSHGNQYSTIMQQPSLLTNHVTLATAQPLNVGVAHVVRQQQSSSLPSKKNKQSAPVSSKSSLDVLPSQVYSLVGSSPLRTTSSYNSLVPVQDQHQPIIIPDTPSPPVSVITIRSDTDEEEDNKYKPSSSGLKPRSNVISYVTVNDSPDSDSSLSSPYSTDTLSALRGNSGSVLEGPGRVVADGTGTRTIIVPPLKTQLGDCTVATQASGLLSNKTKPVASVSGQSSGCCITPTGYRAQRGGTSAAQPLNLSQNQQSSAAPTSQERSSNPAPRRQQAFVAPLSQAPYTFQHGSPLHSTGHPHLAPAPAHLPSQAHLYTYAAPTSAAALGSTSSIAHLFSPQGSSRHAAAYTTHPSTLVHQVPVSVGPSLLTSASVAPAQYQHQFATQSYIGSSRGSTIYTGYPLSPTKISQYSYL
# [19] = Intrinsic clearance in human liver microsomes at 1 umol/l after 15 to 30 mins in presence of NADPH by LC-MS/MS analysis; format: ADME, microsome; conditions: read-out: CLH
# [20] = target: CDK8/Cyclin C (Homo sapiens) (UniProt P49336+P24863); conditions: 1 uM
# Description: Inhibition of kinase tracer-236 binding to GST-tagged CDK8/CyclinC (unknown origin) at 1 uM after 60 mins by TR-FRET assay relative to control
# [21] = target: Glycogen synthase kinase-3 beta (Homo sapiens) (UniProt P49841); assay: Inhibition of GSK3beta (unknown origin) at 1 uM using GSK3 substrate peptide preincubated for 5 mins followed by substrate addition measured after 30 mins in presence of [gamma33P]ATP by scintillation counter method relative to control
# [22] = target: Mitogen-activated protein kinase 3 (Homo sapiens) (UniProt P27361); assay: Inhibition of ERK1 (unknown origin) at <1 uM using MBP as substrate preincubated for 5 mins followed by substrate addition measured after 60 mins in presence of [gamma33P]ATP by scintillation counter method
# [23] = target: CDK2/Cyclin A2 (Homo sapiens) (UniProt P24941+P20248); assay: Inhibition of CDK2/cyclin A (unknown origin) at 1 uM using histone H1 as substrate preincubated for 5 mins followed by substrate addition measured after 20 mins in presence of [gamma33P]ATP by scintillation counter method relative to control; format: protein-complex assay
# [24] = target: Homeodomain-interacting protein kinase 2 (Homo sapiens) (UniProt Q9H2X6); assay: Binding affinity to partial length wild-type human HIPK2 (M153 to S564 residues) expressed in mammalian expression system assessed as unbound drug level at 300 nM by KINOMEscan assay
# [25] = target: Focal adhesion kinase 1 (Homo sapiens) (UniProt Q05397); assay: Inhibition of FAK (unknown origin) at <1 uM using biotinylated poly[Glu:Tyr] (4:1) as substrate pretreated for 5 mins followed by substrate addition measured after 20 mins by Alphascreen assay
# [26] = Toxicity in C.B17/Icr scid/scid Jcl mouse mouse; conditions: in vivo
smiles,measurement,setting,value
COCCNC(=O)c1ccc(Oc2sc(C(N)=O)c3c2-c2sncc2CC3)cn1,inhibition,[1],inactive
same,inhibition,[2],33%
same,GI50,MV4-11,1.6 nM
same,EC50,[3],1.3 nM
same,T/C,RPMI-8226 [4],-1%
same,GI50,RPMI-8226 [5],2.5 nM
same,inhibition,[6],inactive
same,inhibition,[7],7%
same,inhibition,[8],inactive
same,Activity,Mus musculus,0.9%
same,T/C,RPMI-8226 [9],27%
same,Fu,[10],0.47%
same,inhibition,[11],inactive
same,Fu,[12],0.49%
same,MRT,[13],2.06 h
same,inhibition,[14],inactive
same,inhibition,[15],inactive
same,Fu,[16],0.046%
same,inhibition,[17],inactive
same,Kd,[18],160 nM
same,microsomal CLint at 1 µM,[19],21 µL/min/mg
same,inhibition,[20],105%
same,inhibition,[21],31%
same,inhibition,[22],inactive
same,inhibition,[23],62%
same,Fu,[24],0.48%
same,inhibition,[25],inactive
same,MTD,[26],2.5 mg/kg
